Measured values taken from patent publication US6369061B1, “Therapeutic agent for spinal canal stenosis” (Mitsubishi Pharma Corporation, priority 1998, dated 2002).

Test system: rabbit acute spinal canal stenosis model
Assay: Rabbit cauda equina nerve graded constriction model as rabbit acute spinal canal stenosis model (nerve conduction velocity, tissue blood flow, tissue oxygen tension)
Assay type: in vivo
Conditions: for Cauda equina nerve conduction velocity / Cauda equina nerve tissue blood flow / Cauda equina nerve tissue oxygen tension: measured 8 days after model preparation, mean ± standard error
Protocol: Effects of compound A on cauda equina nerve conduction velocity, cauda equina nerve tissue blood flow and variation in cauda equina nerve tissue oxygen tension in a rabbit acute spinal canal stenosis model
(1) Preparation of the Rabbit Cauda Equina Nerve Graded Constriction Model as Rabbit Acute Spinal Canal Stenosis Model Male Japanese white rabbits were fixed at the abdominal position under anesthesia by an intravenous injection of pentobarbital sodium (25 mg/kg, DAINIPPON PHARMACEUTICAL CO., LTD.) and the vertebral arch of the fifth lumbar vertebra was removed under a microscope (OLYMPUS OME) observation to expose cauda equina nerve. After the cauda equina nerve fascicle was gently ligated at one site together with a 26 G injection needle using a catgut suture (chromic catgut (thread 4-0, needle 12.9 mm), Johnson and Johnson), the injection needle was pulled out, and the dissected portion was sutured. In the sham operation group, the cauda equina nerve was only exposed and the dissected portion was sutured.
The rabbits were grouped in turn into a sham operation group (6 rabbits), a solvent group (6 rabbits), a compound A (3 mg/kg) administration group (6 rabbits), a compound A (10 mg/kg) administration group (6 rabbits), a compound A (30 mg/kg) administration group (6 rabbits), and a cilostazol (300 mg/kg, the same anti-platelet drug as compound A as a control drug, Otsuka Pharmaceutical Co., Ltd.) administration group (6 rabbits).
The drug was prepared into the volume of 5 mL/kg by suspending in 0.5% methylcellulose solution, and orally administered repeatedly once a day for 7 consecutive days from the next day of the model preparation. The 0.5% methylcellulose solution (5 mL/kg) was administered in the same manner to the solvent group. Nothing was administered to the sham operation group.
The next day of the final administration (8 days after model animals preparation), the model animals were anesthetized by an intravenous injection of pentobarbital sodium (25 mg/kg) and, after insertion of a tracheal catheter, fixed at the abdominal position. The rabbits were connected to a ventilator (45 times/min) and given pancuronium bromide (0.08 mg/kg, Sankyo Co., Ltd.) by an intravenous administration. The cauda equina nerve tissue blood flow in the downstream portion of the ligation site was measured transdurally using a laser blood flowmeter [ADVANCED LASER FLOWMETER, ALF2100, Advance] under the microscope observation. The cauda equina nerve tissue oxygen tension was measured at the same site using a pO2 monitor (model POG-201, Unique Medical Co. Ltd.). The cauda equina nerve conduction velocity was obtained by deriving the action potential induced by a spinal electric stimulus in the upper point and lower point of the ligation site and dividing the distance between the both points by the difference in the rise latent time (SIGNAL PROCESSOR, San-ei).
The obtained results are shown in mean±standard error. Using SAS (Statistical Analysis System), the following statistical analysis was performed. The sham operation group and the solvent group were compared by the Student's t-test. The effect of the drug was verified by the Dunnett's method to the solvent group as a control. In both tests, p<0.05 was taken as statistically significant.

[1] = 3 mg/kg p.o. once a day for 7 days
[2] = 10 mg/kg p.o. once a day for 7 days
[3] = 30 mg/kg p.o. once a day for 7 days
[4] = 300 mg/kg p.o. once a day for 7 days
[5] = 300 mg/kg p.o., vs. solvent group

| SMILES | Cauda equina nerve conduction velocity [1] [cm/ms] | Cauda equina nerve tissue blood flow [1] [ml/min. 100 g tissue] | Cauda equina nerve tissue oxygen tension [1] [mmHg] | Cauda equina nerve conduction velocity [2] [cm/ms] | Cauda equina nerve tissue blood flow [2] [ml/min. 100 g tissue] | Cauda equina nerve tissue oxygen tension [2] [mmHg] | Cauda equina nerve conduction velocity [3] [cm/ms] | Cauda equina nerve tissue blood flow [3] [ml/min. 100 g tissue] | Cauda equina nerve tissue oxygen tension [3] [mmHg] | Effect on cauda equina nerve tissue blood flow (in words) (30 mg/kg p.o., vs. solvent group) | Effect on decrease in cauda equina nerve conduction velocity (in words) (3, 10, 30 mg/kg p.o., vs. solvent group) | Effect on cauda equina nerve tissue oxygen tension (in words) (3, 10, 30 mg/kg p.o., vs. solvent group, significant at 30 mg/kg) | Cauda equina nerve conduction velocity [4] [cm/ms] | Cauda equina nerve tissue blood flow [4] [ml/min. 100 g tissue] | Cauda equina nerve tissue oxygen tension [4] [mmHg] | Effect on cauda equina nerve conduction velocity (in words) [5] | Effect on cauda equina nerve tissue blood flow (in words) [5] | Effect on cauda equina nerve tissue oxygen tension (in words) [5] |
| --- | --- | --- | --- | --- | --- | --- | --- | --- | --- | --- | --- | --- | --- | --- | --- | --- | --- | --- |
| Cl.O=c1[nH]nc(OCCCc2ccc(Cl)cc2)c(NCc2cccnc2)c1Br [Compound A, 4-bromo-6-[3-(4-chlorophenyl)propoxy]-5-(3-pyridylmethylamino)-3(2H)-pyridazinone hydrochloride] | 20.327 ± 4.871 | 23.33 ± 4.59 | 35.5 ± 5.6 | 22.838 ± 3.571 | 24.42 ± 2.70 | 42.8 ± 5.8 | 27.098 ± 3.627 | 33.67 ± 4.21 | 49.8 ± 3.4 | significantly increased | significantly lessened the decrease in a dose-dependent manner | showed a dose-dependent increase |  |  |  |  |  |  |
| O=C1CCc2cc(OCCCCc3nnnn3C3CCCCC3)ccc2N1 [Cilostazol, cilostazol, reference compound] |  |  |  |  |  |  |  |  |  |  |  |  | 14.585 ± 2.606 | 21.88 ± 4.25 | 33.7 ± 5.3 | did not improve the velocity | not improved | did not show an increasing effect |
